In US9056835B2, “LPA2 receptor-specific benzoic acid derivatives” (University of Tennessee Research Foundation, priority 2012, dated 2015):

Experiments:
[1] = tested on: MM1 hepatoma cells; test: MM1 hepatoma cell invasion of endothelial monolayer; type: cell-based, rat; conditions: LPA 1 μM, GRI977143 10 μM, 20 h
Method: Mouse embryonic fibroblast (MEF) cells were isolated from E13.5 LPA1&2 double knockout (DKO) embryos. MEFs were transduced with empty vector or LPA2-containing lentiviruses and selected with 1.5 μg/ml puromycin. Cells were maintained in Dulbecco's modified Eagle medium (DMEM) supplemented with 10% (V/V) fetal bovine serum (FBS), 2 mM L-glutamine, 100 U/mL penicillin, and 100 μg/mL streptomycin. Serum-free medium contained 0.1% (W/V) BSA in DMEM. The rat intestinal epithelial cell line 6 (IEC-6) was obtained from the American Type Culture Collection (Rockville, Md.) at passage 13; passages 16-21 were used in all experiments. IEC-6 cells were maintained in a humidified 37° C. incubator in an atmosphere of 90% air and 10% CO2. Growth medium consisted of DMEM supplemented with 5% heat inactivated FBS, 10 μg/mL insulin, and 50 μg/mL gentamycin. […]
HUVEC (1.3×10^5 cells at passages 5 to 7) were seeded into each well of a 12-well plate pre-coated with 0.2% gelatin (Sigma-Aldrich). […] Tumor cells that penetrated the monolayer were photographed using a NIKON TiU inverted microscope with phase-contrast and fluorescence illumination. […] A total of five non-overlapping fields was imaged per well, and the number of invaded MM1 cells (displaying a flattened morphology underneath the monolayer) was counted.

[2] = biological target: T1, LPA2, TRIP6 and NHERF2 (Homo sapiens, UniProt Q9HBW0); test: Ligand-induced macromolecular complex formation with LPA2; type: cell-based; conditions: HEK293T, FLAG-LPA2 and EGFP-NHERF2, 10 μM, 10 min
T1 construct: expressed in transfected cells; host or cells: HEK293T, transient co-transfection
T1 sequence (Q9HBW0 whole entry): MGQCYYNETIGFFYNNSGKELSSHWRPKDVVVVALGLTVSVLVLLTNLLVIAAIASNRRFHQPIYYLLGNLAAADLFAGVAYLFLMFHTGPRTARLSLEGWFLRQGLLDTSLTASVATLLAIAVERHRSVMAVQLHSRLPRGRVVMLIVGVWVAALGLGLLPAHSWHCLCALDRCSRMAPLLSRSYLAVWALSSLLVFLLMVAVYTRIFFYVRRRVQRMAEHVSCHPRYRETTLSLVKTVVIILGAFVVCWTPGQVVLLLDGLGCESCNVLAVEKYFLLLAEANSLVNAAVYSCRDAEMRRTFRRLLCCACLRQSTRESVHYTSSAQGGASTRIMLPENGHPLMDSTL
T1 sequence (Q15599 whole entry partner): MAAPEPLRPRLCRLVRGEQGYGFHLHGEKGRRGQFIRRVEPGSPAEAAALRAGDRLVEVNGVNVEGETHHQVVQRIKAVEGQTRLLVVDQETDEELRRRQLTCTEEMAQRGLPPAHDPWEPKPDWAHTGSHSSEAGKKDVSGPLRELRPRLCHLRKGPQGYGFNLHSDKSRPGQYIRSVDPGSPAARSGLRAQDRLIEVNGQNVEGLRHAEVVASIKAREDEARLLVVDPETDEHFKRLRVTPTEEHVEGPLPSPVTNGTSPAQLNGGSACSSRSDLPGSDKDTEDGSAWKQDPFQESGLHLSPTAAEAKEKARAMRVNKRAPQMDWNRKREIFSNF
T1 sequence (Q15654 whole entry partner): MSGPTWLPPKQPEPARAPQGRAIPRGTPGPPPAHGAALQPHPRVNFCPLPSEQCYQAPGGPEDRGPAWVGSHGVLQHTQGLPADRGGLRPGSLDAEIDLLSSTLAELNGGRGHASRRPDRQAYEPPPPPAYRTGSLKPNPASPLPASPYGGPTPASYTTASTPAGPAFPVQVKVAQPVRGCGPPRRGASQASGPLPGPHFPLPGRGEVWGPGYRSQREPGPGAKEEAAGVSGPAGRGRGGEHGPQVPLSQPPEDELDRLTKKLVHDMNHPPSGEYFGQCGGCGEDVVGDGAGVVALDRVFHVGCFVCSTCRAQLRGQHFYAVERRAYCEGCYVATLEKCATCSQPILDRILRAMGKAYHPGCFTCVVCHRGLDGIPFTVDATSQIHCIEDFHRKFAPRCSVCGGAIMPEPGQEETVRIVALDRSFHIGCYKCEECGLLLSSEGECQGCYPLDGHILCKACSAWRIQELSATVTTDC
Excerpt: LPA2 forms a ternary complex with TRIP6 and NHERF2. This complex is assembled via multiple protein-protein interactions that include: binding of NHERF2 to the C-terminal PSD95/Dlg/ZO-1 domain (PDZ)-binding motif of LPA2, the binding of TRIP6 to the Zinc-finger-like CxxC motif of LPA2, and binding of NHERF2 to the PDZ-binding motif of TRIP6. To examine ligand-induced macromolecular complex formation, HEK293T cells were transfected with FLAG-LPA2 and enhanced green fluorescent protein (EGFP)-NHERF2, and the cells were exposed to 10 μM GRI977143 for 10 min as described in detail in our previous publication (E et al., The LPA2 receptor-mediated supramolecular complex formation regulates its antiapoptotic effect. J Biol Chem (2009) 284: 14558-14571). The complex was pulled down using anti-FLAG M2 monoclonal antibody-conjugated agarose beads (Sigma-Aldrich) and processed for western blotting using anti-EGFP (gift from Dr. A. P. Naren; UTHSC, TN), anti-FLAG (Sigma-Aldrich), and anti-TRIP6 (Bethyl Laboratories; Montgomery, Tex.) antibodies.

[3] = tested on: PARP-1; test: Immunoblot, PARP-1 cleavage; type: cell-based, mouse; conditions: 10 μM
Method: Experiments were performed on vector- and LPA2-transduced MEF cells. To measure caspase 3, 7, 8, or 9 activity and DNA fragmentation, cells were plated in 48-well plates (2×10^4 cells/well). To detect PARP-1 cleavage and Bax translocation, 1.5×10^6 cells were plated in 10-cm dishes and cultured overnight in full growth medium. The next morning, the growth medium was replaced by serum-starvation medium and cells were pretreated for 1 h with LPA (1-10 μM), OTP (1-10 μM), GRI977143 (1-10 μM), or vehicle. Caspase activity, DNA fragmentation, PARP-1 cleavage, and Bax translocation were measured 5 h after incubation with 1.7 μM Adriamycin or 24 h after serum withdrawal.
To detect ligand-induced ERK1/2 activation, vector- and LPA2-transfected MEF cells were serum starved 3 h before exposure to 1 μM LPA, 1 μM OTP, 10 μM GRI977143, or vehicle for 10 min. For ERK1/2 activation and PARP-1 cleavage measurements, cells were harvested in 1× Laemmli sample buffer and separated using 12% Laemmli SDS-polyacrylamide gels. To assess Bax translocation, cell lysates were separated into cytosolic, mitochondrial, and nuclear fractions using the Cell Fractionation Kit-Standard (MitoSciences; Eugene, Oreg.). […] Samples were boiled for 5 min and loaded onto 12% SDS-polyacrylamide gels. Western blotting was carried out as previously described (Valentine et al., 2010). […]

Structure (SMILES) | MM1 cell invasion of HUVEC monolayers [1] | assembly of macromolecular complex LPA2-TRIP6-NHERF2 [2] | PARP-1 cleavage ([3]; LPA2-transduced MEF, Adriamycin or serum withdrawal) | PARP-1 cleavage ([3]; vector-transduced cells)
O=C(O)c1ccccc1SCCCN1C(=O)c2cccc3cccc(c23)C1=O [GRI977143] | significant increase | elicited the assembly of the signaling complex | reduced PARP-1 cleavage | not observed
CCCCCCCC/C=C\CCCCCCCC(=O)OC[C@@H](O)COP(=O)(O)O [LPA 18:1, Lysophosphatidic acid (18:1)] | significant increase |  |  | 
